In PubChem BioAssay AID256 (DTP/NCI, 2004):
“And” between values parts separate entries of the source, which are not always exact repeats. Equal entries are not always repeated. Toxic doses and inconclusive results are not listed.

System: CD2F1 mice, L1210 leukemia ip, survival T/C
Experiment: NCI In Vivo Anticancer Drug Screen. Data for tumor model L1210 Leukemia (intraperitoneal) in CD2F1 (CDF1) mice
Conditions: higher = longer survival
How it was run: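 Each value reflects a quotient of treated over vehicle control outcomes in mice with a transplanted tumor.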

[1] = endpoint: mean survival time, dose: 100.0 mg/kg/injection, schedule: Q04DX002 (ip), vehicle: saline with Tween-80
[2] = endpoint: mean survival time, dose: 200.0 mg/kg/injection, schedule: Q04DX002 (ip), vehicle: saline with Tween-80
[3] = endpoint: mean survival time, dose: 400.0 mg/kg/injection, schedule: Q04DX002 (ip), vehicle: saline with Tween-80
[4] = endpoint: mean survival time, dose: 100.0 mg/kg/injection, schedule: Q04DX003 (ip), vehicle: saline with Tween-80
[5] = endpoint: mean survival time, dose: 200.0 mg/kg/injection, schedule: Q04DX003 (ip), vehicle: saline with Tween-80
[6] = endpoint: mean survival time, dose: 400.0 mg/kg/injection, schedule: Q04DX003 (ip), vehicle: saline with Tween-80
[7] = endpoint: mean survival time, dose: 20.0 mg/kg/injection, schedule: Q01DX009 (ip), vehicle: saline with Tween-80
[8] = endpoint: mean survival time, dose: 50.0 mg/kg/injection, schedule: Q01DX009 (ip), vehicle: saline with Tween-80
[9] = endpoint: mean survival time, dose: 100.0 mg/kg/injection, schedule: Q01DX009 (ip), vehicle: saline with Tween-80
[10] = endpoint: mean survival time, dose: 200.0 mg/kg/injection, schedule: Q01DX009 (ip), vehicle: saline with Tween-80
[11] = endpoint: mean survival time, dose: 400.0 mg/kg/injection, schedule: Q01DX009 (ip), vehicle: saline with Tween-80
[12] = endpoint: mean survival time, dose: 25.0 mg/kg/injection, schedule: Q01DX009 (ip), vehicle: saline
[13] = endpoint: mean survival time, dose: 25.0 mg/kg/injection, schedule: Q01DX009 (ip), vehicle: saline with Tween-80

For `COc1cccc2c1C(=O)c1c(O)c3c(c(O)c1C2=O)C[C@@](O)(C(=O)CO)C[C@@H]3OC1CC(OC(C)=O)C(OC(C)=O)C(C)O1` (stereo partly drawn), the T/C (endpoint: mean survival time, dose: 1.56 mg/kg/injection, schedule: Q01DX009 (ip), vehicle: distilled water + Tween-80) was 115 % of control, the T/C (endpoint: mean survival time, dose: 3.12 mg/kg/injection, schedule: Q01DX009 (ip), vehicle: distilled water + Tween-80) was 122 % of control and the T/C (endpoint: mean survival time, dose: 6.25 mg/kg/injection, schedule: Q01DX009 (ip), vehicle: distilled water + Tween-80) was 167 % of control. The T/C (endpoint: mean survival time, dose: 12.5 mg/kg/injection, schedule: Q01DX009 (ip), vehicle: distilled water + Tween-80) was 153 % of control and 203 % of control, the T/C (endpoint: mean survival time, dose: 25.0 mg/kg/injection, schedule: Q01DX009 (ip), vehicle: distilled water + Tween-80) was 93 % of control and 100 % of control and the T/C (endpoint: median survival time, dose: 1.56 mg/kg/injection, schedule: Q01DX009 (ip), vehicle: distilled water + Tween-80) was 113 % of control. The T/C (endpoint: median survival time, dose: 6.25 mg/kg/injection, schedule: Q01DX009 (ip), vehicle: distilled water + Tween-80) was 158 % of control and 176 % of control, the T/C (endpoint: median survival time, dose: 12.5 mg/kg/injection, schedule: Q01DX009 (ip), vehicle: distilled water + Tween-80) was 226 % of control and 250 % of control and the T/C (endpoint: median survival time, dose: 25.0 mg/kg/injection, schedule: Q01DX009 (ip), vehicle: distilled water + Tween-80) was 120 % of control and 95 % of control.

`CC1=C2CCCCC2(C)CCC1=O` (stereo not drawn) was tested, and the T/C [1] was 120 % of control, the T/C [2] was 108 % of control and the T/C [3] was 100 % of control.

`NC(=S)CNC(=O)c1ccccc1` was tested, and the T/C [4] was 100 % of control and 101 % of control, the T/C [5] was 101 % of control and 106 % of control and the T/C [6] was 99 % of control and 111 % of control.

With `O=C1CCCC(c2ccccc2)c2ccccc21` (stereo not drawn) the T/C (endpoint: mean survival time, dose: 100.0 mg/kg/injection, schedule: Q01DX001 (ip), vehicle: saline) was 97 % of control, the T/C (endpoint: mean survival time, dose: 200.0 mg/kg/injection, schedule: Q01DX001 (ip), vehicle: saline) was 97 % of control and the T/C (endpoint: mean survival time, dose: 400.0 mg/kg/injection, schedule: Q01DX001 (ip), vehicle: saline) was 97 % of control.

For `CC1(C2CC(=O)N(OCc3ccccc3)C2=O)OCCO1` (stereo not drawn), the T/C (endpoint: mean survival time, dose: 100.0 mg/kg/injection, schedule: Q04DX003 (ip), vehicle: other) was 89 % of control, the T/C (endpoint: mean survival time, dose: 200.0 mg/kg/injection, schedule: Q04DX003 (ip), vehicle: other) was 87 % of control and the T/C (endpoint: mean survival time, dose: 400.0 mg/kg/injection, schedule: Q04DX003 (ip), vehicle: other) was 88 % of control.

With `Nc1ccc(I)cc1F` the T/C [4] was 100 % of control, the T/C [5] was 104 % of control and the T/C [6] was 100 % of control.

For `O=C(O)c1ccc(C(=O)O)c(C(=O)O)c1.[NH-]C1CCCCC1[NH-].[Pd+2]`, the T/C (endpoint: mean survival time, dose: 9.36 mg/kg/injection, schedule: Q04DX003 (ip), vehicle: sodium bicarbonate) was 98 % of control, the T/C (endpoint: mean survival time, dose: 18.75 mg/kg/injection, schedule: Q04DX003 (ip), vehicle: sodium bicarbonate) was 101 % of control and the T/C (endpoint: mean survival time, dose: 75.0 mg/kg/injection, schedule: Q04DX003 (ip), vehicle: sodium bicarbonate) was 101 % of control. The T/C (endpoint: mean survival time, dose: 150.0 mg/kg/injection, schedule: Q04DX003 (ip), vehicle: sodium bicarbonate) was 101 % of control.

For `COc1cc2c3c(cccc3c1)C(=O)N(CCN(C)C)C2=O`, the T/C (endpoint: mean survival time, dose: 5.0 mg/kg/injection, schedule: Q01DX009 (ip), vehicle: saline with Tween-80) was 98 % of control and 100 % of control, the T/C (endpoint: mean survival time, dose: 10.0 mg/kg/injection, schedule: Q01DX009 (ip), vehicle: saline with Tween-80) was 98 % of control and 102 % of control and the T/C [7] was 97 % of control and 101 % of control. The T/C (endpoint: mean survival time, dose: 40.0 mg/kg/injection, schedule: Q01DX009 (ip), vehicle: saline with Tween-80) was 100 % of control and 108 % of control, the T/C (endpoint: mean survival time, dose: 80.0 mg/kg/injection, schedule: Q01DX009 (ip), vehicle: saline with Tween-80) was 103 % of control and 110 % of control and the T/C (endpoint: mean survival time, dose: 160.0 mg/kg/injection, schedule: Q01DX009 (ip), vehicle: saline with Tween-80) was 106 % of control.

In the case of `Clc1ccc(SSc2ccc(Cl)cc2Cl)c(Cl)c1`, the T/C [1] is reported as 90 % of control, the T/C [2] is reported as 104 % of control and the T/C [3] is reported as 95 % of control.

With `S=C(N/N=C/c1ccccn1)N/N=C/c1ccccn1` the T/C [7] was 102 % of control, the T/C (endpoint: mean survival time, dose: 33.0 mg/kg/injection, schedule: Q01DX009 (ip), vehicle: saline with Tween-80) was 117 % of control and the T/C [8] was 113 % of control. The T/C (endpoint: mean survival time, dose: 75.0 mg/kg/injection, schedule: Q01DX009 (ip), vehicle: saline with Tween-80) was 119 % of control and 101 % of control.

With `Nc1ccc2c(Cl)cc(Cl)cc2c1` the T/C [8] was 102 % of control, the T/C [9] was 103 % of control and the T/C [4] was 98 % of control. For the same compound, the T/C [10] was 96 % of control and the T/C [5] was 91 % of control.

For `Nc1nc(NCCc2ccccc2)c2ncn(C3OC(CO)C(O)C3O)c2n1` (stereo not drawn), the T/C (endpoint: mean survival time, dose: 12.5 mg/kg/injection, schedule: Q01DX005 (ip), vehicle: other) was 102 % of control, the T/C (endpoint: mean survival time, dose: 25.0 mg/kg/injection, schedule: Q01DX005 (ip), vehicle: other) was 98 % of control and the T/C (endpoint: mean survival time, dose: 50.0 mg/kg/injection, schedule: Q01DX005 (ip), vehicle: other) was 104 % of control. For the same compound, the T/C (endpoint: mean survival time, dose: 100.0 mg/kg/injection, schedule: Q01DX005 (ip), vehicle: other) was 108 % of control.

With `O=C(O)CCCCCNCC(CNCCCCCC(=O)O)(C(=O)O)C(=O)O` the T/C [1] was 104 % of control, the T/C [2] was 96 % of control and the T/C [3] was 111 % of control.

`CC1(C)/C(=N/Nc2ccc([N+](=O)[O-])cc2[N+](=O)[O-])C=Cc2ccccc21` was tested, and the T/C (endpoint: mean survival time, dose: 12.5 mg/kg/injection, schedule: Q01DX009 (ip), vehicle: other) was 105 % of control, the T/C (endpoint: mean survival time, dose: 25.0 mg/kg/injection, schedule: Q01DX009 (ip), vehicle: other) was 94 % of control and the T/C (endpoint: mean survival time, dose: 100.0 mg/kg/injection, schedule: Q01DX009 (ip), vehicle: other) was 90 % of control. For the same compound, the T/C (endpoint: mean survival time, dose: 200.0 mg/kg/injection, schedule: Q01DX009 (ip), vehicle: other) was 94 % of control.

For `CCOc1ccc(CO)cc1`, the T/C [9] was 104 % of control, the T/C [10] was 98 % of control and the T/C [11] was 108 % of control.

`Cc1cccc(/C=N\OCc2ccccc2)n1` was tested, and the T/C [9] was 98 % of control and the T/C [10] was 113 % of control.

With `O=C(/C(=N\N=C\c1c(O)ccc2ccccc12)c1ccccc1)c1ccccc1` the T/C [9] was 93 % of control, the T/C [10] was 90 % of control and the T/C [11] was 92 % of control.

For `Nc1nc(N)c(-c2cccc(Cl)c2)c(CBr)n1`, the T/C (endpoint: mean survival time, dose: 6.25 mg/kg/injection, schedule: Q01DX009 (ip), vehicle: saline) was 102 % of control, the T/C (endpoint: mean survival time, dose: 12.5 mg/kg/injection, schedule: Q01DX009 (ip), vehicle: saline) was 103 % of control and the T/C [12] was 109 % of control.

For `Cc1ccc(NC(=S)NCCO)cc1`, the T/C [9] was 86 % of control, the T/C [10] was 92 % of control and the T/C [11] was 88 % of control.

In the case of `CN(C)N=Nc1c(F)cc(F)c(F)c1F`, the T/C [13] is reported as 101 % of control, the T/C [8] is reported as 104 % of control and the T/C [9] is reported as 104 % of control.

`CN(C)N(Cc1ccccc1)/N=N/c1nc[nH]c1C(N)=O` was tested, and the T/C (endpoint: mean survival time, dose: 50.0 mg/kg/injection, schedule: Q01DX001 (ip), vehicle: Klucel (hydroxypropylcellulose) (HPC)) was 107 % of control, the T/C (endpoint: mean survival time, dose: 50.0 mg/kg/injection, schedule: Q01DX009 (ip), vehicle: Klucel (hydroxypropylcellulose) (HPC)) was 105 % of control and the T/C (endpoint: mean survival time, dose: 100.0 mg/kg/injection, schedule: Q01DX001 (ip), vehicle: Klucel (hydroxypropylcellulose) (HPC)) was 98 % of control. For the same compound, the T/C (endpoint: mean survival time, dose: 100.0 mg/kg/injection, schedule: Q01DX009 (ip), vehicle: Klucel (hydroxypropylcellulose) (HPC)) was 96 % of control, the T/C (endpoint: mean survival time, dose: 200.0 mg/kg/injection, schedule: Q01DX001 (ip), vehicle: Klucel (hydroxypropylcellulose) (HPC)) was 90 % of control and the T/C (endpoint: mean survival time, dose: 200.0 mg/kg/injection, schedule: Q01DX009 (ip), vehicle: Klucel (hydroxypropylcellulose) (HPC)) was 107 % of control.

`CC(C)CCNc1ncnc2c1cnn2C` was tested, and the T/C [12] was 97 % of control, the T/C (endpoint: mean survival time, dose: 50.0 mg/kg/injection, schedule: Q01DX009 (ip), vehicle: saline) was 108 % of control and the T/C (endpoint: mean survival time, dose: 100.0 mg/kg/injection, schedule: Q01DX009 (ip), vehicle: saline) was 86 % of control. The T/C (endpoint: mean survival time, dose: 100.0 mg/kg/injection, schedule: Q04DX003 (ip), vehicle: saline) was 116 % of control.

For `COc1ccc2c(c1OC(C)=O)-c1cc(OC(C)=O)cc3c1C(C2)N(C(=O)CCl)CC3` (stereo not drawn), the T/C (endpoint: mean survival time, dose: 25.0 mg/kg/injection, schedule: Q04DX003 (ip), vehicle: DMSO) was 101 % of control, the T/C (endpoint: mean survival time, dose: 50.0 mg/kg/injection, schedule: Q04DX003 (ip), vehicle: DMSO) was 96 % of control and the T/C (endpoint: mean survival time, dose: 100.0 mg/kg/injection, schedule: Q04DX003 (ip), vehicle: DMSO) was 101 % of control.

In the case of `NNC(=O)C1C2CCCCC21` (stereo not drawn), the T/C [13] is reported as 94 % of control, the T/C [8] is reported as 97 % of control and the T/C [9] is reported as 97 % of control.

For `c1ccc(-c2n[nH]c3ccccc23)cc1`, the T/C (endpoint: median survival time, dose: 50.0 mg/kg/injection, schedule: Q04DX002 (ip), vehicle: saline with Tween-80) was 100 % of control, the T/C (endpoint: median survival time, dose: 100.0 mg/kg/injection, schedule: Q04DX002 (ip), vehicle: saline with Tween-80) was 100 % of control and the T/C (endpoint: median survival time, dose: 200.0 mg/kg/injection, schedule: Q04DX002 (ip), vehicle: saline with Tween-80) was 100 % of control.
